Experimental findings from ChEMBL document CHEMBL4715878 (J Med Chem, 2020) are described below.

A word on the GI50: it is the concentration that inhibits growth by half. Broadly, the IC50 is the concentration that gives 50% inhibition. For orientation: inhibition means the change of the read-out against control, counted positive when it falls.

Molecules are shown by their SMILES. The source made the active and inactive calls. No cut-off for these calls is given here. A value given as a limit tells only on which side of the number the result lay.

The subject of test [1] is AU565. Nature of the test: Down regulation of HER2 expression in human AU565 cells at 0.5 IC50 incubated for 72 hrs by Western blot analysis. The format is functional, cell-based.
The test system of test [2] is MDA-MB-231. Nature of the test: Induction of apoptosis in human MDA-MB-231 cells assessed as accumulation in late apoptotic cells at 5 uM incubated for 72 hrs by Annexin V-FITC/PI staining based flow cytometry analysis. The format is functional, cell-based. In general terms: In flow cytometry, cells or beads pass a laser one at a time.
The subject of test [3] is MDA-MB-231. Nature of the test: Induction of apoptosis in human MDA-MB-231 cells assessed as accumulation in early apoptotic cells at 5 uM incubated for 72 hrs by Annexin V-FITC/PI staining based flow cytometry analysis. The class given is functional, cell-based.
The subject of test [4] is MCF7. Nature of the test: Induction of apoptosis in human MCF7 cells assessed as accumulation in late apoptotic cells at 5 uM incubated for 72 hrs by Annexin V-FITC/PI staining based flow cytometry analysis. The format is functional, cell-based.
In test [5] the test system is MCF7. In words: Induction of apoptosis in human MCF7 cells assessed as accumulation in early apoptotic cells at 5 uM incubated for 72 hrs by Annexin V-FITC/PI staining based flow cytometry analysis. The class given is functional, cell-based.
Test [6] concerns BT-474. In words: Induction of apoptosis in human BT474 cells assessed as increase in late apoptotic cells at 0.5 to 5 uM incubated for 72 hrs by Annexin V-FITC/PI staining based flow cytometry analysis relative to control. The class given is functional. To be noted: dose 0.5-5 µM.
In test [7] the test system is BT-474. Nature of the test: Induction of apoptosis in human BT474 cells assessed as increase in early apoptotic cells at 0.5 to 5 uM incubated for 72 hrs by Annexin V-FITC/PI staining based flow cytometry analysis relative to control. The format is functional. To be noted: dose 0.5-5 µM.
For test [8], the system named is BT-474. In words: Induction of apoptosis in human BT474 cells assessed as increase in early apoptotic cells incubated for 72 hrs by Annexin V-FITC/PI staining based flow cytometry analysis. The class given is functional, cell-based. To be noted: dose 0.1-5 µM.
For test [9], the system named is T47D. Nature of the test: Antiproliferative activity against human T47D cells assessed as cell growth inhibition after 48 hrs by SRB assay. The format is functional. To be noted: pooled result: one value given for 5 cell lines, strains, targets or settings. Background: Sulforhodamine B stains cellular protein and so reports cell mass.
Test [10] in a line: Antiproliferative activity against human BC assessed as lethality at 10 uM after 48 hrs by SRB assay relative to control. The class given is functional.
A short description of test [11]: Antiproliferative activity against human BC assessed as cell growth inhibition at 10 uM after 48 hrs by SRB assay relative to control. The format is functional. To be noted: read-out: GI.
Test [12] can be described thus: Antiproliferative activity against human MDA-MB-231 cells assessed as lethality at 10 uM after 48 hrs by SRB assay relative to control. The format is functional, MDA-MB-23.
The subject of test [13] is MCF7. In words: Antiproliferative activity against human MCF7 cells assessed as lethality at 10 uM after 48 hrs by SRB assay relative to control. The format is functional.
Test [14] has as its system MDA-MB-468. In words: Antiproliferative activity against human MDA-MB-468 cells assessed as cell growth inhibition after 48 hrs by SRB assay. The format is functional.
Test [15] deals with MDA-MB-468. Nature of the test: Antiproliferative activity against human MDA-MB-468 cells assessed as lethality at 10 uM after 48 hrs by SRB assay relative to control. The class given is functional.
Test [16] concerns MDA-MB-468. Nature of the test: Antiproliferative activity against human MDA-MB-468 cells assessed as cell growth inhibition at 10 uM after 48 hrs by SRB assay relative to control. The format is functional. To be noted: read-out: GI.
Test [17] relates to Panel NCI-60 (60 carcinoma cell lines). In words: Antiproliferative activity against human NCI60 cells assessed as lethality at 10 uM after 48 hrs by SRB assay relative to control. The class given is functional.
Test [18] has the same test system. In words: Antiproliferative activity against human NCI60 cells assessed as mean cell growth at 10 uM after 48 hrs by SRB assay relative to control. The class given is functional.
In test [19] the test system is MDA-MB-231. In words: Antiproliferative activity against human MDA-MB-231 cells assessed as reduction in cell viability incubated for 72 hrs by WST8 assay. The class given is functional, cell-based. To be noted: MDA-MB-231, 72 h.
For test [20], the system named is MCF7. In words: Antiproliferative activity against human MCF7 cells assessed as reduction in cell viability incubated for 72 hrs by WST8 assay. To be noted: MCF7, 72 h. The class given is functional, cell-based. For orientation: Formazan colour is commonly taken as a measure of viable cells.
The target of test [21] is T1, Receptor tyrosine-protein kinase erbB-2 (Homo sapiens, UniProt P04626). Nature of the test: Inhibition of wild-type HER2 (unknown origin) at 0.5 nM in presence of substrate incubated for 30 mins by ADP-Glo assay relative to control.
T1 sequence (P04626 whole entry): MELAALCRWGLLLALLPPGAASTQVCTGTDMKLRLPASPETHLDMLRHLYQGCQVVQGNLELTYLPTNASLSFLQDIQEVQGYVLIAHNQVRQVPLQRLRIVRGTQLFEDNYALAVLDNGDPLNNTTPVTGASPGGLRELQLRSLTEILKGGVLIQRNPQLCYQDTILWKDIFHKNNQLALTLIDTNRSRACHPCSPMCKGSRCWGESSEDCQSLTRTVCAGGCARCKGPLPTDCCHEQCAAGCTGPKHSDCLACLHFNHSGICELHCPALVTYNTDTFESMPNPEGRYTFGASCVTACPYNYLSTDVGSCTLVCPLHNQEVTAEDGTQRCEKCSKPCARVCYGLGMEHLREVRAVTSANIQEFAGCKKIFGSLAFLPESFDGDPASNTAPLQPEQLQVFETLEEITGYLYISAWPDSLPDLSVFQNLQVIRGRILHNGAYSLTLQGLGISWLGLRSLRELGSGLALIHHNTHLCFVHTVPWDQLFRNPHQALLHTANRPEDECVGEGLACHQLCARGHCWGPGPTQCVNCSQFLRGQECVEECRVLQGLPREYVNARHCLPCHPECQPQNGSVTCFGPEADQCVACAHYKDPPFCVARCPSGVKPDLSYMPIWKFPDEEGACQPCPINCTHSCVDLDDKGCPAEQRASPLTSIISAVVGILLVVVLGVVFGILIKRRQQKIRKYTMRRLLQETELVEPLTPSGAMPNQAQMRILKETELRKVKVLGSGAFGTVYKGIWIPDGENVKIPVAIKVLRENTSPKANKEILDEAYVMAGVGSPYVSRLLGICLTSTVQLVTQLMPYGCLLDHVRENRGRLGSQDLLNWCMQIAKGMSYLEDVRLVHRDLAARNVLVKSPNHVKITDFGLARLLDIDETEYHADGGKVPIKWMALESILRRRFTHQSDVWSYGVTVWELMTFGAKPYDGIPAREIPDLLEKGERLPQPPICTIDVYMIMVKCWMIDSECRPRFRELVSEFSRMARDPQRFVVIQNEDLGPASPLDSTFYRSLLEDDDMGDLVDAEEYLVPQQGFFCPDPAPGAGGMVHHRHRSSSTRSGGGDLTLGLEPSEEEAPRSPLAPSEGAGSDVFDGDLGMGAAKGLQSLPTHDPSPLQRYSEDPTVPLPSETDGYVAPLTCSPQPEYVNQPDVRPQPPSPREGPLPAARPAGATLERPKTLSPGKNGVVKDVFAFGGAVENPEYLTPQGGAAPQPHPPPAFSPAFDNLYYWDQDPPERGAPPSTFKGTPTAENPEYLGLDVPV
Test [22] deals with BT-474. In words: Antiproliferative activity against human BT474 cells assessed as reduction in cell viability incubated for 72 hrs by WST8 assay. The format is functional, cell-based. To be noted: BT-474, 72 h.
Test [23] concerns AU565. In words: Antiproliferative activity against human AU565 cells assessed as reduction in cell viability incubated for 72 hrs by WST8 assay. The format is functional, cell-based. To be noted: AU565, 72 h.
Test [24] deals with T1, Receptor tyrosine-protein kinase erbB-2. Nature of the test: Inhibition of HER2 (unknown origin) in presence of substrate incubated for 30 mins by ADP-Glo assay.

With `Cc1cccc(Oc2ccc(Nc3ncnc4ccc(NC(=O)CN5CCN(C)CC5)cc34)cc2Cl)c1`, the result in test [1], in test [2], in test [3], in test [4] and in test [5] was inactive. For the same molecule, the figures for the “fold change (FC)” value in test [6] and in test [7] were “<=3” and “<=6”, respectively. For the same molecule, the Activity result is “Dose-dependent effect” in test [8]; “<=78.7%” in test [10]; 18% in test [12]; 18% in test [13]; 18% in [15]; 1.3% in test [17]. The Activity in test [18] came to 11.85%. Besides, the GI50 was 1210 nM in [9] and 400 nM in [14]. In addition, the inhibition of growth at 10 µM in test [11] is no more than 78.7%; in test [16], 18.8%. Moreover, the half-maximal inhibitory concentration (IC50) was found to be 4500 nM in [19]; 2650 nM in test [20]; 81 nM in test [22]; 135 nM in test [23]; 5.4 nM in test [24]. Further, the inhibition in test [21] came out at 3%.
